According to US11931325B2, “Hair-growth promoting composition and usage thereof” (Eaderm Co., Ltd., priority 2015, dated 2024):

Tests used:
ob/ob mouse = assay: Hair growth experiment using an iNOS inhibitor in shaved/depilated ob/ob mice; type: in vivo; details: for time until deposition of melanin pigments in the skin was observed: hair removed at 8 weeks of age, intraperitoneal in saline (10, 20 and 30 mg/kg for 1400W, L-NIL, BYK191023), time from start of administration; for area of hair growth compared to 1400W: 4 weeks
Protocol: For this experiment, the ob/ob mouse purchased from Sankyo Labo Service Corporation was used. The whole back of the mouse was shaved using an electric shaver under anesthesia (mixed anesthesia of ketamine hydrochloride and xylazine hydrochloride) at 8 weeks of age, and the hair was removed with a commercially available depilatory cream (Epilat hair removal cream from Kracie Holdings, Ltd.). Administration or application of each iNOS inhibitor was carried out on the day the experiment began. The usage and dosage of the iNOS inhibitors used are as described below. Selective iNOS inhibitors, 1400W, L-NIL and BYK191023, were purchased from Tocris Bioscience and dissolved in saline solution, and each of them was administered intraperitoneally at 10 mg/kg, 20 mg/kg and 30 mg/kg. For the control group, saline solution was administered intraperitoneally. Consecutive administration for five days from Monday to Friday was continued for one month. A similarly selective iNOS inhibitor, aminoguanidine, was purchased from Tokyo Chemical Industry Co., Ltd. and dissolved in saline solution to 10% (w/v), and 100 μl was applied to the epilation area. For the control group, saline solution was used. Consecutive application for five days from Monday to Friday was continued for one month. The back was photographed once a week and observation was continued until 12 weeks of age. Every seven days from the start of the administration, the state of hair growth in the shaved area was rated using the hair growth score standard below.
(Hair Growth Score Standard)
1=hair growth in less than 10% of the shaved area
2=hair growth in equal to or more than 10% and less than 20% of the shaved area
3=hair growth in equal to or more than 20% and less than 30% of the shaved area
4=hair growth in equal to or more than 30% and less than 40% of the shaved area
5=hair growth in equal to or more than 40% and less than 50% of the shaved area
6=hair growth in equal to or more than 50% and less than 60% of the shaved area
7=hair growth in equal to or more than 60% and less than 70% of the shaved area
8=hair growth in equal to or more than 70% and less than 80% of the shaved area
9=hair growth in equal to or more than 80% and less than 90% of the shaved area
10=hair growth in equal to or more than 90% of the shaved area

[1] = tested on: C3H mouse and C57BL/6 mouse; assay: Hair growth experiment using wild-type mice (application of aminoguanidine); type: in vivo; details: C3H and C57BL/6 mice, 10% (w/v) in saline, 100 μl applied to the epilation area, five days a week for three weeks
Protocol: In this experiment, the same method as Example 2 was used, except that the C3H mouse and C57BL/6 mouse were used. The whole back of the mouse was shaved using an electric shaver under anesthesia (mixed anesthesia of ketamine hydrochloride and xylazine hydrochloride) at 8 weeks of age, and the hair was removed with a commercially available depilatory cream (Epilat hair removal cream from Kracie Holdings, Ltd.). Application of aminoguanidine was carried out on the day the experiment began. The usage and dosage of the aminoguanidine used are as described below. Aminoguanidine was purchased from Tokyo Chemical Industry Co., Ltd. and dissolved to 10% (w/v) in saline solution, and 100 μl was applied to the epilation area. For the control group, saline solution was used. Consecutive application for five days from Monday to Friday was continued for three weeks, and the back was photographed daily.

[2] = 10% (w/v) in saline, 100 μl applied to the epilation area, time from start of application

## CC(=N)NCc1cccc(CN)c1 [1400W]
ob/ob mouse; intraperitoneal administration, five days a week for one month
  time until widespread hair growth was confirmed: four

## COc1ccnc(CCc2nc3ncccc3[nH]2)c1 [BYK191023]
ob/ob mouse; five days a week for one month
  time until deposition of melanin pigments in the skin was observed: three
ob/ob mouse; intraperitoneal administration
  area of hair growth compared to 1400W: less

## CC(=N)NCCCC[C@H](N)C(=O)O [L-NIL]
ob/ob mouse; five days a week for one month
  time until deposition of melanin pigments in the skin was observed: three
ob/ob mouse; intraperitoneal administration
  area of hair growth compared to 1400W: less

## N=C(N)NN [aminoguanidine]
[1]
  shortening of the telogen phase compared to the control group: two to three
ob/ob mouse; [2]
  time until hair growth was confirmed: two
  time until hair returned to almost the same as the original condition: four
  time until widespread hair growth was confirmed: three
